Data taken from PubChem BioAssay AID248 (DTP/NCI, 2004).
Where “and” joins values, the source holds several entries; their conditions need not be identical. Equal values may be shown once. Toxic doses and inconclusive results are not listed.

Test system: L1210 leukemia ip in BDF1 mice, survival T/C
Experiment: NCI In Vivo Anticancer Drug Screen. Data for tumor model L1210 Leukemia (intraperitoneal) in B6D2F1 (BDF1) mice
Settings: endpoint: mean survival time, higher = longer survival
How it was run: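 Value reflects the ratio of survival in compound-treated mice to survival in vehicle-treated controls, with both groups carrying the same transplanted tumor.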

[1] = dose: 100.0 mg/kg/injection, schedule: Q01DX001 (ip), vehicle: Klucel (hydroxypropylcellulose) (HPC)
[2] = dose: 25.0 mg/kg/injection, schedule: Q01DX009 (ip), vehicle: saline with Tween-80
[3] = dose: 100.0 mg/kg/injection, schedule: Q04DX003 (ip), vehicle: saline with Tween-80
[4] = dose: 100.0 mg/kg/injection, schedule: Q01DX001 (ip), vehicle: saline
[5] = dose: 200.0 mg/kg/injection, schedule: Q01DX001 (ip), vehicle: saline
[6] = dose: 100.0 mg/kg/injection, schedule: Q01DX009 (ip), vehicle: saline with Tween-80
[7] = dose: 200.0 mg/kg/injection, schedule: Q01DX009 (ip), vehicle: saline with Tween-80
[8] = dose: 200.0 mg/kg/injection, schedule: Q04DX003 (ip), vehicle: saline with Tween-80
[9] = dose: 400.0 mg/kg/injection, schedule: Q04DX003 (ip), vehicle: saline with Tween-80

With O=C(Nc1ccccc1C(F)(F)F)Nc1cccc2c(O)cccc12 the T/C (dose: 100.0 mg/kg/injection, schedule: Q01DX001 (ip), vehicle: carboxymethylcellulose (CMC)) was 93 % of control and 100 % of control, the T/C (dose: 100.0 mg/kg/injection, schedule: Q01DX009 (ip), vehicle: carboxymethylcellulose (CMC)) was 100 % of control and 91 % of control and the T/C (dose: 100.0 mg/kg/injection, schedule: Q04DX002 (ip), vehicle: carboxymethylcellulose (CMC)) was 86 % of control. The T/C (dose: 100.0 mg/kg/injection, schedule: Q04DX003 (ip), vehicle: carboxymethylcellulose (CMC)) was 88 % of control and 91 % of control, the T/C (dose: 200.0 mg/kg/injection, schedule: Q01DX001 (ip), vehicle: carboxymethylcellulose (CMC)) was 93 % of control and 89 % of control and the T/C (dose: 200.0 mg/kg/injection, schedule: Q01DX009 (ip), vehicle: carboxymethylcellulose (CMC)) was 100 % of control and 103 % of control. The T/C (dose: 200.0 mg/kg/injection, schedule: Q04DX002 (ip), vehicle: carboxymethylcellulose (CMC)) was 96 % of control and 89 % of control, the T/C (dose: 200.0 mg/kg/injection, schedule: Q04DX003 (ip), vehicle: carboxymethylcellulose (CMC)) was 97 % of control and 88 % of control and the T/C (dose: 400.0 mg/kg/injection, schedule: Q01DX001 (ip), vehicle: carboxymethylcellulose (CMC)) was 94 % of control and 90 % of control. The T/C (dose: 400.0 mg/kg/injection, schedule: Q01DX009 (ip), vehicle: carboxymethylcellulose (CMC)) was 96 % of control and 91 % of control, the T/C (dose: 400.0 mg/kg/injection, schedule: Q04DX002 (ip), vehicle: carboxymethylcellulose (CMC)) was 89 % of control and 90 % of control and the T/C (dose: 400.0 mg/kg/injection, schedule: Q04DX003 (ip), vehicle: carboxymethylcellulose (CMC)) was 97 % of control and 88 % of control.

With CC[S+](CC)CC the T/C (dose: 100.0 mg/kg/injection, schedule: Q04DX003 (ip), vehicle: saline) was 95 % of control and the T/C (dose: 200.0 mg/kg/injection, schedule: Q04DX003 (ip), vehicle: saline) was 95 % of control.

With O=C(O)CC(Sc1ccccc1)C(=O)O (stereo not drawn) the T/C (dose: 100.0 mg/kg/injection, schedule: Q04DX002 (ip), vehicle: saline + alcohol) was 99 % of control, the T/C (dose: 200.0 mg/kg/injection, schedule: Q04DX002 (ip), vehicle: saline + alcohol) was 102 % of control and the T/C (dose: 400.0 mg/kg/injection, schedule: Q04DX002 (ip), vehicle: saline + alcohol) was 99 % of control.

In the case of N#CN1CC(C(=O)N2CCCCC2)C=C2c3cccc4[nH]cc(c34)CC21 (stereo not drawn), the T/C (dose: 4.0 mg/kg/injection, schedule: Q04DX003 (ip), vehicle: saline) is reported as 96 % of control, the T/C (dose: 6.25 mg/kg/injection, schedule: Q04DX003 (ip), vehicle: saline) is reported as 119 % of control and the T/C (dose: 8.0 mg/kg/injection, schedule: Q04DX003 (ip), vehicle: saline) is reported as 95 % of control. For the same compound, the T/C (dose: 12.5 mg/kg/injection, schedule: Q04DX003 (ip), vehicle: saline) was 118 % of control, the T/C (dose: 16.0 mg/kg/injection, schedule: Q04DX003 (ip), vehicle: saline) was 86 % of control and the T/C (dose: 25.0 mg/kg/injection, schedule: Q04DX003 (ip), vehicle: saline) was 115 % of control. For the same compound, the T/C (dose: 50.0 mg/kg/injection, schedule: Q04DX003 (ip), vehicle: saline) was 90 % of control.

In the case of Nc1cccc(-c2nc3[nH]ncc3c(=O)[nH]2)c1, the T/C (dose: 25.0 mg/kg/injection, schedule: Q01DX001 (ip), vehicle: Klucel (hydroxypropylcellulose) (HPC)) is reported as 100 % of control, the T/C (dose: 50.0 mg/kg/injection, schedule: Q01DX001 (ip), vehicle: Klucel (hydroxypropylcellulose) (HPC)) is reported as 98 % of control and the T/C [1] is reported as 93 % of control.

With COc1ccc(N=NNc2ccc(OC)cc2)cc1 the T/C (dose: 6.25 mg/kg/injection, schedule: Q01DX009 (ip), vehicle: saline with Tween-80) was 101 % of control, the T/C (dose: 12.5 mg/kg/injection, schedule: Q01DX009 (ip), vehicle: saline with Tween-80) was 102 % of control and the T/C (dose: 12.5 mg/kg/injection, schedule: Q04DX003 (ip), vehicle: saline with Tween-80) was 97 % of control. The T/C [2] was 98 % of control and 90 % of control, the T/C (dose: 25.0 mg/kg/injection, schedule: Q04DX003 (ip), vehicle: saline with Tween-80) was 95 % of control and the T/C (dose: 50.0 mg/kg/injection, schedule: Q04DX003 (ip), vehicle: saline with Tween-80) was 97 % of control. The T/C [3] was 98 % of control.

With CCOC(=O)c1ccc(N)cc1C(=O)OCC the T/C [1] was 93 % of control, the T/C (dose: 200.0 mg/kg/injection, schedule: Q01DX001 (ip), vehicle: Klucel (hydroxypropylcellulose) (HPC)) was 95 % of control and the T/C (dose: 400.0 mg/kg/injection, schedule: Q01DX001 (ip), vehicle: Klucel (hydroxypropylcellulose) (HPC)) was 87 % of control.

O=C(O)c1ccc(NC(c2ccccc2)c2ccc3cccnc3c2O)cc1 (stereo not drawn) was tested, and the T/C [4] was 86 % of control, the T/C [5] was 89 % of control and the T/C (dose: 400.0 mg/kg/injection, schedule: Q01DX001 (ip), vehicle: saline) was 86 % of control.

CC(=O)c1cccc(NC(=O)Nc2ccc(S(N)(=O)=O)cc2)c1 was tested, and the T/C [6] was 105 % of control and the T/C [7] was 97 % of control.

O=C(O)c1ccc(Br)o1 was tested, and the T/C (dose: 100.0 mg/kg/injection, schedule: Q04DX002 (ip), vehicle: saline with Tween-80) was 104 % of control, the T/C (dose: 200.0 mg/kg/injection, schedule: Q04DX002 (ip), vehicle: saline with Tween-80) was 97 % of control and the T/C (dose: 400.0 mg/kg/injection, schedule: Q04DX002 (ip), vehicle: saline with Tween-80) was 95 % of control.

With CCO/C=N\c1[nH]ncc1C#N the T/C (dose: 50.0 mg/kg/injection, schedule: Q01DX009 (ip), vehicle: Klucel (hydroxypropylcellulose) (HPC)) was 93 % of control, the T/C (dose: 100.0 mg/kg/injection, schedule: Q01DX009 (ip), vehicle: Klucel (hydroxypropylcellulose) (HPC)) was 107 % of control and the T/C (dose: 200.0 mg/kg/injection, schedule: Q01DX009 (ip), vehicle: Klucel (hydroxypropylcellulose) (HPC)) was 103 % of control.

In the case of CSc1cccc(NC(=O)/C=C/C(=O)O)c1, the T/C (dose: 75.0 mg/kg/injection, schedule: Q01DX009 (ip), vehicle: Klucel (hydroxypropylcellulose) (HPC)) is reported as 98 % of control, the T/C (dose: 150.0 mg/kg/injection, schedule: Q01DX009 (ip), vehicle: Klucel (hydroxypropylcellulose) (HPC)) is reported as 93 % of control and the T/C (dose: 300.0 mg/kg/injection, schedule: Q01DX009 (ip), vehicle: Klucel (hydroxypropylcellulose) (HPC)) is reported as 93 % of control.

In the case of O=C(Nc1cccnc1)C1=Cc2ccccc2OC1, the T/C [6] is reported as 95 % of control, the T/C [3] is reported as 103 % of control and the T/C [7] is reported as 94 % of control. For the same compound, the T/C [8] was 98 % of control, the T/C (dose: 400.0 mg/kg/injection, schedule: Q01DX009 (ip), vehicle: saline with Tween-80) was 105 % of control and the T/C [9] was 107 % of control.

In the case of COC1OC(COC(=S)SCc2ccccc2)C(O)C(O)C1O (stereo not drawn), the T/C (dose: 50.0 mg/kg/injection, schedule: Q04DX002 (ip), vehicle: saline) is reported as 113 % of control, the T/C (dose: 100.0 mg/kg/injection, schedule: Q04DX002 (ip), vehicle: saline) is reported as 110 % of control and the T/C (dose: 200.0 mg/kg/injection, schedule: Q04DX002 (ip), vehicle: saline) is reported as 92 % of control.

CCOC(=O)C(=O)c1c[nH]c2ccccc12 was tested, and the T/C [3] was 97 % of control, the T/C [8] was 97 % of control and the T/C [9] was 95 % of control.

With CN(Cc1cnc2nc(N)nc(N)c2n1)c1ccc(C(=O)NC(CCC(=O)O)C(=O)O)c(Cl)c1Cl (stereo not drawn) the T/C (dose: 12.5 mg/kg/injection, schedule: Q01DX009 (ip), vehicle: sodium bicarbonate) was 157 % of control, the T/C (dose: 25.0 mg/kg/injection, schedule: Q01DX009 (ip), vehicle: sodium bicarbonate) was 157 % of control and the T/C (dose: 50.0 mg/kg/injection, schedule: Q01DX009 (ip), vehicle: sodium bicarbonate) was 155 % of control.

In the case of CCCCCCCCN(CC)CC, the T/C (dose: 50.0 mg/kg/injection, schedule: Q01DX001 (ip), vehicle: saline) is reported as 88 % of control, the T/C [4] is reported as 90 % of control and the T/C [5] is reported as 90 % of control.

O=C(CNC(=O)Nc1ccc(F)cc1)NNC(=O)Nc1ccc(Cl)c([N+](=O)[O-])c1 was tested, and the T/C [2] was 94 % of control, the T/C (dose: 50.0 mg/kg/injection, schedule: Q01DX009 (ip), vehicle: saline with Tween-80) was 93 % of control and the T/C [6] was 102 % of control.

With Oc1ccccc1C=Nc1ccccc1O the T/C (dose: 33.0 mg/kg/injection, schedule: Q04DX002 (ip), vehicle: gum acacia) was 103 % of control, the T/C (dose: 50.0 mg/kg/injection, schedule: Q04DX002 (ip), vehicle: gum acacia) was 100 % of control and the T/C (dose: 75.0 mg/kg/injection, schedule: Q04DX002 (ip), vehicle: gum acacia) was 100 % of control. For the same compound, the T/C (dose: 100.0 mg/kg/injection, schedule: Q01DX009 (ip), vehicle: gum acacia) was 89 % of control, the T/C (dose: 100.0 mg/kg/injection, schedule: Q04DX002 (ip), vehicle: gum acacia) was 104 % of control and the T/C (dose: 200.0 mg/kg/injection, schedule: Q01DX009 (ip), vehicle: gum acacia) was 105 % of control. The T/C (dose: 200.0 mg/kg/injection, schedule: Q04DX002 (ip), vehicle: gum acacia) was 107 % of control and the T/C (dose: 400.0 mg/kg/injection, schedule: Q01DX009 (ip), vehicle: gum acacia) was 89 % of control.

COc1ccc(OC(=S)N(C)C)cc1 was tested, and the T/C [3] was 94 % of control, the T/C [8] was 88 % of control and the T/C [9] was 102 % of control.
